Test results as given in patent US9469615B2, “Quinoxalines and AZA-quinoxalines as CRTH2 receptor modulators” (Merck Sharp & Dohme Corp., priority 2010, dated 2016).

Target: T1, hCRTH2 (Homo sapiens, UniProt Q9Y5Y4)
T1 construct: expressed in transfected cells; host or cells: HEK (human embryonic kidney) cells expressing hCRTH2; membrane preparation
T1 sequence (Q9Y5Y4 1-395): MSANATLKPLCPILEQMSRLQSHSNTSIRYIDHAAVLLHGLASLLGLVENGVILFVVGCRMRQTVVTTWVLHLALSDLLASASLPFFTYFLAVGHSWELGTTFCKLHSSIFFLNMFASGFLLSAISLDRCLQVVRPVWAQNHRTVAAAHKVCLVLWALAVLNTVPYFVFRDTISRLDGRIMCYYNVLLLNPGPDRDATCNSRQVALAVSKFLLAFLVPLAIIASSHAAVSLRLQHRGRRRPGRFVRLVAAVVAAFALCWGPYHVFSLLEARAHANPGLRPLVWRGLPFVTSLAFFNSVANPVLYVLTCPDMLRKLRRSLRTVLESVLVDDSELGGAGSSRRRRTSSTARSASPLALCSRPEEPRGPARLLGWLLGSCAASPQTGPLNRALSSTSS
Assay: Radioligand binding assay ([3H]PGD2 competition, HEK-hCRTH2 membranes)
Settings: [3H]PGD2 binding, rated A-E (Table A)
Method in brief: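 Using membranes of an HEK line stably carrying hCRTH2, ligands were tested against [3H]PGD2 (3.0 nM) in pH 7.4 Tris buffer containing 2 mM MnCl2 and 1 mM EDTA. After one hour at room temperature, filters were washed cold and counted.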

Compound	Ki [nM]
O=C(O)CCCCc1nc2cc(C(=O)NCc3ccccc3)ccc2nc1-c1ccc(F)cc1 [compound 129, 3-(4-fluorophenyl)-7-[[(phenylmethyl)amino]carbonyl]-2-quinoxalinepentanoic acid]	0.1 to 2
C[C@@H](NC(=O)c1ccc2nc(-c3ccc(F)cc3)c(CCCCC(=O)O)nc2c1)c1ccc(Cl)cc1 [compound 130, 7-[[[1(R)-(4-chlorophenyl)ethyl]amino]carbonyl]-3-(4-fluorophenyl)-2-quinoxalinepentanoic acid]	0.1 to 2
C[C@H](NC(=O)c1ccc2nc(-c3ccc(F)cc3)c(CCCCC(=O)O)nc2c1)c1ccc(Cl)cc1 [compound 131, 7-[[[1(S)-(4-chlorophenyl)ethyl]amino]carbonyl]-3-(4-fluorophenyl)-2-quinoxalinepentanoic acid]	2.1 to 20
C[C@@H](NC(=O)c1ccc2nc(-c3ccc(F)cc3)c(CCCCC(=O)O)nc2c1)c1ccccc1 [compound 132, 3-(4-fluorophenyl)-7-[[(1(R)-phenylethyl)amino]carbonyl]-2-quinoxalinepentanoic acid]	2.1 to 20
C[C@H](NC(=O)c1ccc2nc(-c3ccc(F)cc3)c(CCCCC(=O)O)nc2c1)c1ccccc1 [compound 133, 3-(4-fluorophenyl)-7-[[(1(S)-phenylethyl)amino]carbonyl]-2-quinoxalinepentanoic acid]	2.1 to 20
O=C(O)CCCCc1nc2cc(C(=O)N3CCC(O)(c4ccc(Cl)cc4)CC3)ccc2nc1-c1ccc(F)cc1 [compound 134, 7-[[4-(4-chlorophenyl)-4-hydroxy-1-piperidinyl]carbonyl]-3-(4-fluorophenyl)-2-quinoxalinepentanoic acid]	0.1 to 2
O=C(O)CCCCc1nc2cc(C(=O)N3CCC(c4ccc(Cl)cc4)CC3)ccc2nc1-c1ccc(F)cc1 [compound 135]	2.1 to 20
O=C(O)CCCCc1nc2cc(C(=O)N3CC=C(c4ccc(Cl)cc4)CC3)ccc2nc1-c1ccc(F)cc1 [compound 136, 7-[[4-(4-chlorophenyl)-3,6-dihydro-1(2H)-pyridinyl]carbonyl]-3-(4-fluorophenyl)-2-quinoxalinepentanoic acid]	2.1 to 20
O=C(O)CCCCc1nc2cc(C(=O)N[C@H](c3ccccc3)C(F)(F)F)ccc2nc1-c1ccc(F)cc1 [compound 137, 3-(4-fluorophenyl)-7-[[[2,2,2-2-trifluoro-1(R)-phenylethyl)amino]carbonyl]-2-quinoxalinepentanoic acid]	20.1 to 200
O=C(O)CCCCc1nc2cc(C(=O)N[C@@H](c3ccc(F)cc3)C(F)(F)F)ccc2nc1-c1ccc(F)cc1 [compound 138, 3-(4-fluorophenyl)-7-[[[2,2,2-trifluoro-1(S)-(4-fluorophenyl)ethyl]amino]carbonyl]-2-quinoxalinepentanoic acid]	2.1 to 20
O=C(O)CCCCc1nc2cc(C(=O)N[C@H](c3ccc(F)cc3)C(F)(F)F)ccc2nc1-c1ccc(F)cc1 [compound 139, 3-(4-fluorophenyl)-7-[[[(1R)-2,2,2-trifluoro-1-(4-fluorophenyl)ethyl]amino]carbonyl]-2-quinoxalinepentanoic acid]	2.1 to 20
O=C(O)CCCCc1nc2cc(C(=O)N3CC[C@@H](c4ccccc4)C3)ccc2nc1-c1ccccc1 [compound 140, 3-phenyl-7-[(3(S)-phenyl-1-pyrrolidinyl)carbonyl]-2-quinoxalinepentanoic acid]	0.1 to 2
O=C(O)CCCCc1nc2cc(C(=O)N3CC[C@H](c4ccccc4)C3)ccc2nc1-c1ccccc1 [compound 141, 3-phenyl-7-[(3(R)-phenyl-1-pyyrolidinyl)carbonyl]-2-quinoxalinepentanoic acid]	2.1 to 20
O=C(O)CCCCc1nc2cc(C(=O)N3CCC[C@@H](c4ccccc4)C3)ccc2nc1-c1ccccc1 [compound 142, 3-phenyl-7-[(3(S)-phenyl-1-piperidinyl)carbonyl]-2-quinoxalinepentanoic acid]	2.1 to 20
O=C(O)CCCCc1nc2cc(C(=O)N3CCC[C@H](c4ccccc4)C3)ccc2nc1-c1ccccc1 [compound 143, 3-phenyl-7-[(3(R)-phenyl-1-piperidinyl)carbonyl]-2-quinooxalinepentanoic acid]	2.1 to 20
NC(=O)c1ccc2nc(-c3ccccc3)c(CCCCC(=O)O)nc2c1 [compound 144, 5-(7-carbamoyl-3-phenylquinoxalin-2-yl)pentanoic acid]	20.1 to 200

Compound	Ki [nM]
O=C(O)CCCCc1nc2cc(C(=O)N3CCC(n4ccnc4)CC3)ccc2nc1-c1ccccc1 [compound 145, 5-(7-(4-(1H-imidazol-1-yl)piperidine-l-carbonyl)-3-phenylquinoxalin-2-yl)pentanoic acid]	2.1 to 20
C[C@H](NC(=O)c1ccc2nc(-c3ccc(C(F)(F)F)cc3)c(CCCCC(=O)O)nc2c1)c1ccccn1 [compound 146, 7-[[[1(S)-(2-pyridinyl)ethyl]amino]carbonyl]-3-[4-(trifluoromethyl)phenyl]-2-quinoxalinepentanoic acid]	20.1 to 200
C[C@@H](NC(=O)c1ccc2nc(-c3ccc(C(F)(F)F)cc3)c(CCCCC(=O)O)nc2c1)c1ccccn1 [compound 147, 7-[[[1(R)-(2-pyridinyl)ethyl]amino]carbonyl]-3-[4-(trifluoromethyl)phenyl]-2-quinoxalinepentanoic acid]	2.1 to 20
O=C(O)CCCCc1nc2cc(C(=O)N3CCC(c4ccccc4)CC3)ccc2nc1-c1ccc(C(F)(F)F)cc1 [compound 148, 7-[(4-phenyl-1-piperidinyl)carbonyl]-3-[4-(trifluoromethyl)phenyl]-2-quinoxalinepentanoic acid]	0.1 to 2
O=C(O)CCCCc1nc2cc(C(=O)N[C@@H](c3ccccc3)C(F)(F)F)ccc2nc1-c1ccc(C(F)(F)F)cc1 [compound 149, 3-[4-(trifluoromethyl)phenyl]-7-[[(2,2,2-trifluoro-1(S)-phenylethyl)amino]carbonyl]-2-quinoxalinepentanoic acid]	2.1 to 20
O=C(O)CCCCc1nc2cc(C(=O)NC3Cc4ccccc4C3)ccc2nc1-c1ccc(C(F)(F)F)cc1 [compound 150, 7-[[(2,3-dihydro-1H-inden-2-yl)amino]carbonyl]-3-[4-(trifluoromethyl)phenyl]-2-quinoxalinepentanoic acid]	0.1 to 2
O=C(O)CCCCc1nc2cc(C(=O)NCc3cccc(Cl)c3)ccc2nc1-c1ccc(C(F)(F)F)cc1 [compound 151, 7-[[[(3-chlorophenyl)methyl]amino]carbonly]-3-[4-(trifluoromethyl)phenyl]-2-quinoxalinepentanoic acid]	0.1 to 2
O=C(O)CCCCc1nc2cc(C(=O)N3CC(c4ccccc4)C3)ccc2nc1-c1ccc(C(F)(F)F)cc1 [compound 154, 7-[(3-phenyl-1-azetidinyl)carbonyl]-3-[4-(trifluoromethyl)phenyl]-2-quinoxalinepentanoic acid]	0.1 to 2
O=C(O)CCCCc1nc2cc(C(=O)NCc3ccc(Cl)cc3)ccc2nc1-c1ccc(C(F)(F)F)cc1 [compound 155, 7-[[[(4-chlorophenyl)methyl]amino]carbonyl]-3-[4-(trifluoromethyl)phenyl]-2-quinoxalinepentanoic acid]	2.1 to 20
O=C(O)CCCCc1nc2cc(C(=O)NCc3ccc(OC(F)(F)F)cc3)ccc2nc1-c1ccc(C(F)(F)F)cc1 [compound 156, 7-[[[[4-(trifluoromethoxy)phenyl]methyl]amino]carbonyl]-3-[4-(trifluoromethyl)phenyl]-2-quinoxalinepentanoic acid]	2.1 to 20
N#Cc1ccc(CNC(=O)c2ccc3nc(-c4ccc(C(F)(F)F)cc4)c(CCCCC(=O)O)nc3c2)cc1 [compound 157, 7-[[[(4-cyanophenyl)methyl]amino]carbonyl]-3-[4-(trifluoromethyl)phenyl]-2-quinoxalinepentanoic acid]	2.1 to 20
O=C(O)Cc1ccc(CCc2nc3cc(C(=O)N4CCC(c5ccccc5)CC4)ccc3nc2-c2ccc(Cl)cc2)cc1 [compound 158, 4-[2-[3-(4-chlorophenyl)-7-[(4-phenyl-1-piperidinyl)carbonyl]-2-quinoxalinyl]ethyl] benzeneacetic acid]	201 to 700
O=C(O)Cc1ccc(CCc2nc3cc(C(=O)NCc4cccc(Cl)c4)ccc3nc2-c2ccc(Cl)cc2)cc1 [compound 159, 4-[2-[3-(4-chlorophenyl)-7-[[[(3-chlorophenyl)methyl]amino]carbonyl]-2-quinoxalinyl]ethyl] benzeneacetic acid]	201 to 700
CC(CCCc1nc2cc(C(=O)NCc3cccc(F)c3)ccc2nc1-c1ccc(Cl)cc1)C(=O)O (stereo not drawn) [compound 160, 3-(4-chlorophenyl)-7-[[[(3-fluorophenyl)methyl]amino]carbonyl]-alpha-methyl-2-quinoxalinepentanoic acid]	2.1 to 20
CC(CCCc1nc2cc(C(=O)NCc3ccc(F)cc3)ccc2nc1-c1ccc(Cl)cc1)C(=O)O (stereo not drawn) [compound 161, 3-(4-chlorophenyl)-7-[[[(4-fluorophenyl)methyl]amino]carbonyl]-alpha-methyl-2-quinoxalinepentanoic acid]	2.1 to 20
CC(CCCc1nc2cc(C(=O)N3CCC(c4ccccc4)CC3)ccc2nc1-c1ccc(Cl)cc1)C(=O)O (stereo not drawn) [compound 162, 3-(4-chlorophenyl)-alpha-methyl-7-[(4-phenyl-1-piperidinyl)carbonyl]-2-quinoxalinepentanoic acid]	0.1 to 2

Same assay, conditions: [3H]PGD2 binding, values in text

Compound	Ki [nM]
NC(=O)c1ccc2nc(-c3ccccc3)c(CCCCC(=O)O)nc2c1 [compound 144, 5-(7-carbamoyl-3-phenylquinoxalin-2-yl)pentanoic acid]	118
C[C@H](NC(=O)c1ccc2nc(-c3ccc(C(F)(F)F)cc3)c(CCCCC(=O)O)nc2c1)c1ccccn1 [compound 146, 7-[[[1(S)-(2-pyridinyl)ethyl]amino]carbonyl]-3-[4-(trifluoromethyl)phenyl]-2-quinoxalinepentanoic acid]	132
O=C(O)Cc1ccc(CCc2nc3cc(C(=O)NCc4cccc(Cl)c4)ccc3nc2-c2ccc(Cl)cc2)cc1 [compound 159, 4-[2-[3-(4-chlorophenyl)-7-[[[(3-chlorophenyl)methyl]amino]carbonyl]-2-quinoxalinyl]ethyl] benzeneacetic acid]	564
